US20230364062A1, “METHOD OF TREATING MYELOID MALIGNANCIES” (Yeda Research and Development Co. Ltd., priority 2020, published 2023)

Legend:
[1] = system: AML2 SRSF2 (P95H) mutant cell line; assay: Cell viability assay (CellTiter-Glo), drug screen and dose response; format: cell-based, human; settings: validation and dose response after primary screen, 48 hours
Source text: (§1) Compound Libraries: Three commercial libraries were used in the screening process: the Bioactive library (New Selleck Collection 2020, n=3727), the Kinom Set (n=187), and the Epigenetic chemical probe library (Structural Genomics Consortium, n=97).
(§2) Cell viability assay: Compounds were dispensed in 384-well plates using an ECHO® 555 liquid handler (Labcyte) and sealed. On day of experiment, the concentrations of isogenic and respective wildtype cell lines were counted using a Countess™ II FL (Invtrogen™) and re-suspended at 40,000 cell/ml. 50 μL of medium was dispensed using a Multidrop™ Combi Reagent Dispenser (Thermo Fisher), bringing the total number of cells in each well to 2000. Cells were incubated for 48 hours. On day of measurement, plates were centrifuged and supernatant was removed using a Washer/Dispenser II (GNF Systems). A Washer/Dispenser II was then used to dispense CellTiter-Glo® (G7572, Promega) as per the manufacturer's instructions. The luminescence signal was then measured using a PHERAstar® FSX (BMG Labtech) and results were analyzed using Genedata Screener®. The viability of treated cells was normalized to a vehicle control, contained on each plate.
(§3) Next, a sensitivity screening of […] chemical compounds from three commercial libraries: the Bioactive collection (New Selleck Collection 2020, n=3727), the Kinom Set (n=187), and the Epigenetic chemical probe library (Structural Genomics Consortium, n=97) was carried out on the isogenic cell lines. Following a primary screen, compounds with higher cytotoxic efficacy in the mutant versus WT cells were chosen for further validation and dose response analysis. Both mutant MOLM14 and AML2 cell lines responded to various ROCK inhibitors (ROCKi), including, GSK429286A, GSK180736A, Y-39983 and specifically to RKI-1447.

[2] = system: MOLM14 SRSF2 (P95H) mutant cell line; assay: as above; format: cell-based, human; settings: validation and dose response after primary screen, 48 hours
Source text: as §1, §2, §3

SRSF2 mutant cells = assay: Nuclear morphology and microtubule structure by confocal microscopy; format: cell-based, human; settings: SRSF2 mutant cells following RKI-1447 treatment
Source text: The nuclear morphology and microtubule structure of SRSF2 mutant cells was examined by confocal microscopy following RKI-1447 treatment. […] The surface area of the nucleus of mutant cells was considerably bigger than that of WT cells, and the sphericity was reduced (FIGS. 5B-D).

[3] = system: MOLM14 SRSF2 mutant cells; assay: MOLM14 cell line xenograft model of AML in NSG mice; format: in vivo; settings: NSG mice transplanted with MOLM14 cell line model; compared to the control
[4] = system: isogenic SRSF2 mutant and wild-type cell lines; assay: RNA sequencing and proteomics with pre ranked GSEA before and after RKI-1447; format: cell-based, human; settings: both mutant and wild-type cells after exposure to RKI-1447
Source text: (§4) Rho-associated protein kinases (ROCKs or Rho kinases) are key regulators of the actin cytoskeleton and are required for separating cells' duplicated genetic material during cell division to ensure proper partitioning of DNA in to daughter cells. Actin is also linked to RNA polymerase function and associated with many heterogeneous nuclear ribonucleoproteins, and may thus act to affect pre-mRNA processing and regulate transcription. Given this knowledge of ROCKs and actin, it was hypothesized that disrupting the function of ROCKs will result in cell cycle and RNA splicing alteration. In order to test this hypothesis, RNA sequencing and proteomics were performed on isogenic lines prior to and following exposure to RKI-1447. […] One of the significant up regulated protein is CDC20. CDC20 is an activator of anaphase-promoting complex/cyclosome (APC/C), and APC/Cdc 20 activity is critical for metaphase/anaphase transition.

[5] = system: MOLM14 wild type cell line; assay: Cell cycle analysis after RKI-1447; format: cell-based, human; settings: 0.5 μM RKI-1447 compared to untreated control
Source text: as §4

[6] = system: MOLM14 SRSF2 mutant cell line; assay: Cell cycle analysis after RKI-1447; format: cell-based, human
SRSF2 mutated AML = assay: AML-PDX models with SRSF2 mutations in NSG mice; format: in vivo; settings: two AML-PDX samples; 3 weeks of treatment from day 35; versus carrier control
Description: To evaluate whether SRSF2 mutated AML is sensitive to RKI-1447, the present inventors studied its effect in vivo with cell line and patient-derived xenograft model of AML. […] Two AML-PDX models with SRSF2 mutations were established that recapitulate the disease in vivo. NSG mice (n=5-10/sample) were injected with one to five million CD3− cells from two patients with SRSF2 mutated AML through femur. On day 35 the animals were randomized to RKI-1447 or a carrier control. Following 3 weeks of treatment week, engraftment of AML cells in BM was evaluated using flow cytometry. Both lymphoid (CD19+ B cells) and myeloid lineages (CD45dimCD33+) are detected, but dominantly are myeloid graft, in our AML-PDX models. […] To determine the grafts origin from srsf2 mutated LSC/ pre-leukaemic HSCs, human cells (CD45+) were isolated from the total BM cells and amplicon sequence of SRSF2 was performed.

[7] = 0.5 μM RKI-1447 compared to untreated control, MOLM14 SRSF2 mutant

SMILES | response of mutant cell line to ROCK inhibitor (cytotoxic efficacy mutant versus WT) [1] | response of mutant cell line to ROCK inhibitor (cytotoxic efficacy mutant versus WT) [2] | apoptosis (SRSF2 mutant cells) | nuclear morphology (SRSF2 mutant cells) | engraftment (number of CD45+ cells) [3] | pre ranked GSEA, regulated pathways [4] | percentage of G0/G1 phase cells [5] | percentage of G2/M and S phase cells [5] | cell cycle difference in MOLM14 SRSF2 mutant relative to wild type ([6]; 0.5 μM RKI-1447, P<0.01) | percentage of G0/G1 phase cells [6, 7] | percentage of G2/M and S phase cells [6, 7] | engraftment rate of AML cells in BM (flow cytometry) (SRSF2 mutated AML)
CC1=C(C(=O)Nc2ccc3[nH]ncc3c2)C(c2ccc(F)cc2)NC(=O)N1 (stereo not drawn) [GSK180736A] | responded | responded | – | – | – | – | – | – | – | – | – | –
CC1=C(C(=O)Nc2cc3cn[nH]c3cc2F)C(c2ccc(C(F)(F)F)cc2)CC(=O)N1 (stereo not drawn) [GSK429286A] | responded | responded | – | – | – | – | – | – | – | – | – | –
O=C(NCc1cccc(O)c1)Nc1nc(-c2ccncc2)cs1 [RKI-1447] | responded | responded | apoptosis | nucleus invagination and deformations | significant decrease of engraftment | cell cycle is one of the most significantly up-regulated pathways | decrease in the percentage | higher percentage | more pronounced | decrease in the percentage | higher percentage | significant lower engraftment rate
C[C@@H](N)c1ccc(C(=O)Nc2ccnc3[nH]ccc23)cc1 [Y-39983] | responded | responded | – | – | – | – | – | – | – | – | – | –
